# Measurements reported in patent US9850225B2, “Compounds useful as immunomodulators” (BRISTOL-MYERS SQUIBB COMPANY, priority 2014, dated 2017).
# Target: PD-1/PD-L1 interaction (PD-1-Ig / PD-L1-His) (Homo sapiens (Human), UniProt Q9NZQ7)
# Experiment: PD-1/PD-L1 Homogenous Time-Resolved Fluorescence (HTRF) binding assay
# Conditions: PD-1/PD-L1 HTRF binding assay; numeric value; read-out: Range or IC50
# How it was run: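 HTRF detection used 1 nM europium-cryptate anti-Ig and 20 nM APC anti-His. Compounds first saw 10 nM PD-L1-His for 15 min, and 20 nM PD-1-Ig was then added for another 15 min. Buffer was dPBS plus 0.1% BSA and 0.05% Tween-20. All concentrations are final.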
# Sequence of PD-1/PD-L1 interaction (PD-1-Ig / PD-L1-His) (Q9NZQ7 other isoform, or with tags, fused parts or gaps): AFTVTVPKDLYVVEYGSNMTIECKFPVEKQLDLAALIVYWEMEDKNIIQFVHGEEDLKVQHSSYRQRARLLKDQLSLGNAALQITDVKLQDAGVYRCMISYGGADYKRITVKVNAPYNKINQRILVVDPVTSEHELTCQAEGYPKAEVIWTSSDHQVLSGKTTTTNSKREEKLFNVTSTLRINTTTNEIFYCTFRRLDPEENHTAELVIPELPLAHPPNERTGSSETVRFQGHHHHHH
row,IC50,SMILES
1,0.00554 µM,"Cc1c(COc2cc(OCc3cncc(C#N)c3)c(CN[C@H](CC(N)=O)C(=O)O)cc2Cl)cccc1-c1ccc2c(c1)OCCO2 [Example 3024, (R)-4-amino-2-((5-chloro-2-((5-cyanopyridin-3-yl)methoxy)-4-((3-(2,3-dihydrobenzo[b][1,4]dioxin-6-yl)-2-methylbenzyl)oxy)benzyl)amino)-4-oxobutanoic acid]"

# Same assay, conditions: PD-1/PD-L1 HTRF binding assay; value given as range class; read-out: Range or IC50
row,IC50,SMILES
1,0.1 to 20 µM,"Cc1c(COc2cc(OCc3cccc(S(C)(=O)=O)c3)c(C=O)cc2Cl)cccc1-c1ccc2c(c1)OCCO2 [Example 3020, 5-chloro-4-((3-(2,3-dihydrobenzo[b][1,4]dioxin-6-yl)-2-methylbenzyl)oxy)-2-((3-(methylsulfonyl)benzyl)oxy)benzaldehyde]"
2,0.0006 to 0.01 µM,"Cc1c(COc2cc(OCc3cccc(S(C)(=O)=O)c3)c(CN[C@@](C)(CO)C(=O)O)cc2Cl)cccc1-c1ccc2c(c1)OCCO2 [Example 3021, (S)-2-((5-chloro-4-((3-(2,3-dihydrobenzo[b][1,4]dioxin-6-yl)-2-methylbenzyl)oxy)-2-((3-(methylsulfonyl)benzyl)oxy)benzyl)amino)-3-hydroxy-2-methylpropanoic acid]"
3,0.0006 to 0.01 µM,"Cc1c(COc2cc(OCc3cncc(C#N)c3)c(CN[C@@H](CC(N)=O)C(=O)O)cc2Cl)cccc1-c1ccc2c(c1)OCCO2 [Example 3022, (S)-4-amino-2-((5-chloro-2-((5-cyanopyridin-3-yl)methoxy)-4-((3-(2,3-dihydrobenzo[b][1,4]dioxin-6-yl)-2-methylbenzyl)oxy)benzyl)amino)-4-oxobutanoic acid]"
4,0.0006 to 0.01 µM,"Cc1c(COc2cc(OCc3cncc(C#N)c3)c(CN[C@@H](CC(=O)O)C(=O)O)cc2Cl)cccc1-c1ccc2c(c1)OCCO2 [Example 3023, (S)-2-((5-chloro-2-((5-cyanopyridin-3-yl)methoxy)-4-((3-(2,3-dihydrobenzo[b][1,4]dioxin-6-yl)-2-methylbenzyl)oxy)benzyl)amino)succinic acid]"
5,0.0006 to 0.01 µM,"Cc1c(COc2cc(OCc3cncc(C#N)c3)c(CN[C@H](CC(=O)O)C(=O)O)cc2Cl)cccc1-c1ccc2c(c1)OCCO2 [Example 3025, (R)-2-((5-chloro-2-((5-cyanopyridin-3-yl)methoxy)-4-((3-(2,3-dihydrobenzo[b][1,4]dioxin-6-yl)-2-methylbenzyl)oxy)benzyl)amino)succinic acid]"
6,0.1 to 20 µM,"COC(=O)c1ccc(OC)c(COc2cc(OCc3cccc(-c4ccc5c(c4)OCCO5)c3C)c(Cl)cc2CN2CCCC[C@H]2C(=O)O)c1 [Example 3026, (S)-1-(5-chloro-4-((3-(2,3-dihydrobenzo[b][1,4]dioxin-6-yl)-2-methylbenzyl)oxy)-2-((2-methoxy-5-(methoxycarbonyl)benzyl)oxy)benzyl)piperidine-2-carboxylic acid]"
7,0.1 to 20 µM,"COc1ccc(C(=O)O)cc1COc1cc(OCc2cccc(-c3ccc4c(c3)OCCO4)c2C)c(Cl)cc1CN1CCCC[C@H]1C(=O)O [Example 3027, (S)-1-(2-((5-carboxy-2-methoxybenzyl)oxy)-5-chloro-4-((3-(2,3-dihydrobenzo[b][1,4]dioxin-6-yl)-2-methylbenzyl)oxy)benzyl)piperidine-2-carboxylic acid]"
8,0.1 to 20 µM,"Cc1c(COc2cc(OCc3ccccc3)c(CN3CCCC[C@H]3C(=O)O)cc2Cl)cccc1-c1ccc2c(c1)OCCO2 [Example 3028, (S)-1-(2-(benzyloxy)-5-chloro-4-((3-(2,3-dihydrobenzo[b][1,4]dioxin-6-yl)-2-methylbenzyl)oxy)benzyl)piperidine-2-carboxylic acid]"
9,0.0006 to 0.01 µM,"Cc1c(COc2cc(OCC(N)=O)c(CN[C@@H](CO)C(=O)O)cc2Cl)cccc1-c1ccc2c(c1)OCCO2 [Example 3030, (S)-2-((2-(2-amino-2-oxoethoxy)-5-chloro-4-((3-(2,3-dihydrobenzo[b][1,4]dioxin-6-yl)-2-methylbenzyl)oxy)benzyl)amino)-3-hydroxypropanoic acid]"

# Same assay, conditions: PD-1/PD-L1 HTRF binding assay; μM; read-out: Range or IC50
row,IC50,SMILES
1,2.35 µM,"COc1ccccc1COc1cc(OCc2cccc(-c3ccc4c(c3)OCCO4)c2C)c(Cl)cc1CN1CCCC[C@H]1C(=O)O [Example 3029, (S)-1-(5-chloro-4-((3-(2,3-dihydrobenzo[b][1,4]dioxin-6-yl)-2-methylbenzyl)oxy)-2-((2-methoxybenzyl)oxy)benzyl)piperidine-2-carboxylic acid]"
